Reference: the NIST ThermoML archive (doi:10.1016/j.fluid.2015.03.016)
Where “and” joins values, the source holds several entries; their conditions need not be identical. Identical values can stand only once.

Conditions: Liquid, Vibrating wire viscometry

CCCCOC(=O)CCCCC(=O)OCCCC [dibutyl hexanedioate]
Conditions | viscosity
303.14 K, 1250 kPa | 4.201 mPa·s
303.14 K, 1280 kPa | 4.21 mPa·s
303.14 K, 2750 kPa | 4.305 mPa·s
303.14 K, 2760 kPa | 4.313 mPa·s
303.14 K, 2770 kPa | 4.312 mPa·s
303.14 K, 5400 kPa | 4.417 mPa·s
303.14 K, 5420 kPa | 4.417 mPa·s and 4.419 mPa·s and 4.413 mPa·s
303.14 K, 7530 kPa | 4.511 mPa·s
303.14 K, 7570 kPa | 4.513 mPa·s
303.14 K, 7660 kPa | 4.532 mPa·s
303.14 K, 10500 kPa | 4.68 mPa·s
303.14 K, 10520 kPa | 4.686 mPa·s
303.14 K, 10570 kPa | 4.683 mPa·s
303.14 K, 20260 kPa | 5.251 mPa·s
303.14 K, 20300 kPa | 5.25 mPa·s
303.14 K, 20320 kPa | 5.249 mPa·s
303.14 K, 65590 kPa | 8.312 mPa·s
303.15 K, 1220 kPa | 4.205 mPa·s
303.15 K, 1280 kPa | 4.208 mPa·s
303.15 K, 1290 kPa | 4.21 mPa·s
303.15 K, 1300 kPa | 4.211 mPa·s
303.15 K, 2770 kPa | 4.312 mPa·s
303.15 K, 5420 kPa | 4.415 mPa·s and 4.419 mPa·s
303.15 K, 7660 kPa | 4.531 mPa·s and 4.537 mPa·s
303.15 K, 7680 kPa | 4.531 mPa·s and 4.533 mPa·s and 4.537 mPa·s
303.15 K, 7730 kPa | 4.518 mPa·s
303.15 K, 10560 kPa | 4.689 mPa·s
303.15 K, 15380 kPa | 4.954 mPa·s
303.15 K, 15390 kPa | 4.955 mPa·s and 4.963 mPa·s and 4.951 mPa·s
303.15 K, 30100 kPa | 5.839 mPa·s
303.15 K, 30180 kPa | 5.821 mPa·s
303.15 K, 30250 kPa | 5.828 mPa·s
303.15 K, 30290 kPa | 5.827 mPa·s
303.15 K, 30330 kPa | 5.817 mPa·s
303.15 K, 30380 kPa | 5.827 mPa·s
303.15 K, 39970 kPa | 6.452 mPa·s
303.15 K, 40060 kPa | 6.443 mPa·s
303.15 K, 40100 kPa | 6.443 mPa·s
303.15 K, 40150 kPa | 6.446 mPa·s
303.15 K, 49790 kPa | 7.073 mPa·s
303.15 K, 49810 kPa | 7.073 mPa·s
303.15 K, 49830 kPa | 7.07 mPa·s
303.15 K, 49880 kPa | 7.058 mPa·s
303.15 K, 65340 kPa | 8.283 mPa·s
303.15 K, 65490 kPa | 8.277 mPa·s
313.14 K, 1070 kPa | 3.362 mPa·s
313.14 K, 1090 kPa | 3.364 mPa·s
313.14 K, 1110 kPa | 3.371 mPa·s
313.14 K, 1160 kPa | 3.369 mPa·s
313.14 K, 2580 kPa | 3.416 mPa·s
313.14 K, 2590 kPa | 3.412 mPa·s and 3.414 mPa·s
313.14 K, 2600 kPa | 3.415 mPa·s
313.14 K, 2610 kPa | 3.416 mPa·s
313.14 K, 5050 kPa | 3.518 mPa·s
313.14 K, 5060 kPa | 3.518 mPa·s
313.14 K, 7630 kPa | 3.595 mPa·s
313.14 K, 10470 kPa | 3.713 mPa·s
313.14 K, 15150 kPa | 3.89 mPa·s and 3.889 mPa·s
313.14 K, 15210 kPa | 3.888 mPa·s
313.14 K, 20300 kPa | 4.123 mPa·s
313.14 K, 20430 kPa | 4.12 mPa·s
313.14 K, 20440 kPa | 4.123 mPa·s
313.14 K, 30160 kPa | 4.553 mPa·s
313.14 K, 30180 kPa | 4.556 mPa·s and 4.554 mPa·s
313.14 K, 30190 kPa | 4.556 mPa·s
313.14 K, 40210 kPa | 5.026 mPa·s
313.14 K, 40270 kPa | 5.022 mPa·s
313.14 K, 40290 kPa | 5.03 mPa·s
313.14 K, 40330 kPa | 5.028 mPa·s
313.14 K, 50580 kPa | 5.596 mPa·s
313.14 K, 50590 kPa | 5.598 mPa·s
